# From article PMC5511861, “DS16570511 is a small-molecule inhibitor of the mitochondrial calcium uniporter” (Cell Death Discovery, 2017)
# Tests used:
# MICU1 = molecular target: T1, MICU1 (Homo sapiens, UniProt Q9BPX6); assay: MICU1-dependent mitochondrial Ca2+ influx in HEK293A cells overexpressing human MICU1; format: cell-based; details: HEK293A cells overexpressing MICU1, serum-induced
# T1 construct: expressed in transfected cells; host or cells: HEK293A cells, transient co-transfection with the mitochondria-targeted aequorin vector
# T1 sequence (Q9BPX6 34-476): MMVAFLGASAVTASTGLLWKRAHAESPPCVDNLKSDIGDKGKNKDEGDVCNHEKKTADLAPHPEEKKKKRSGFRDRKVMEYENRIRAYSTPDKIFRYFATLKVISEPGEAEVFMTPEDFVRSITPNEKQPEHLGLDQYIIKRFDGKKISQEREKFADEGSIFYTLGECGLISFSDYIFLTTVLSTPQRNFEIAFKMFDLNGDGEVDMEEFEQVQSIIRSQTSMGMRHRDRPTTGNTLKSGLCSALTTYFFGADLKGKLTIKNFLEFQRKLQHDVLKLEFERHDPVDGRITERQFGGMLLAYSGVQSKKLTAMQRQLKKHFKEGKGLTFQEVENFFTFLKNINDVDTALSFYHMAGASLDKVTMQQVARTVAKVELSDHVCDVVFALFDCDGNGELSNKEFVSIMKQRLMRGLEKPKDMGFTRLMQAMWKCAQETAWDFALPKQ
# Excerpt: Next, to investigate the molecular component of the mitochondrial calcium uniporter, MCU-dependent and MICU-dependent Ca^2+ influx were examined. […] The MCU-dependent increment of Ca^2+ influx was blocked by the DS16570511 pretreatment (Figure 5b). We then investigated the effects of the inhibitor on the regulatory subunit MICU1. Previous studies have shown that MICU1 facilitates mitochondrial Ca^2+ uptake through the presence of a high Ca^2+ level.[11],[22]
# Figure 5 DS16570511 inhibits mitochondrial Ca^2+ influx by MCU or MICU1. (a) Effect of overexpression of MCU or MICU1 on mitochondrial Ca^2+ influx in HEK293A cells. (b) Effect of DS16570511 on MCU-dependent mitochondrial Ca^2+ uptake in HEK293A cells. (c) Effect of DS16570511 on MICU1-dependent mitochondrial Ca^2+ uptake in HEK293A cells. […]
# In order to evaluate mitochondrial Ca^2+ uptake activity by MCU or MICU1, HEK293A cells were transiently transfected with the mitochondria-targeted aequorin vector and pcDNA3.1 vector containing human Mcu (NCBI Reference Sequence: NM_138357.2) or Micu1 (NM_001195518.1). One day after the transfection, the luminescence levels were measured as described above. MCU- or MICU1-dependent activity was calculated by subtracting the luminescence level of cells transfected with empty vector from that of cells expressing MCU or MICU1, respectively.
# [1] = test system: Ca2+ uptake of pig heart mitochondria; assay: Ca2+ uptake assay using isolated pig heart mitochondria (atomic absorbance spectrometer); format: biochemical; details: 100 μM CaCl2; read-out: IC50, inhibition of Ca2+ uptake of pig heart mitochondria
# Experimental: We then asked whether DS16570511 inhibits Ca^2+ uptake in isolated mitochondria from animal heart. An atomic absorbance spectrometer-based detection method was employed to analyze intramitochondrial Ca^2+ levels. We prepared freshly isolated mitochondria from pig heart, and the mitochondria were incubated with 100 μM CaCl2.
# (a) Effect of RuR on Ca^2+ uptake of pig heart mitochondria. […] Data are mean with S.E.M. from three independent samples. (b) Inhibition rate of RuR or DS16570511 on Ca^2+ uptake of pig heart mitochondria. Inhibition 0 or 100% is defined as a value of Ca^2+-untreated mitochondria or Ca^2+-treated mitochondria, respectively. Data are mean with S.E.M. from three independent samples. (c) Inhibition rate of RuR or DS16570511 on Ca^2+ uptake of rat heart mitochondria. Data are mean with S.E.M./variation from three or two independent samples for DS16570511 or RuR, respectively.
# Mitochondria were isolated by using the mitochondria isolation kit and then dissolved in the swelling buffer. The protein concentration of the mitochondrial solution was 5 mg/ml. Thirty minutes after application of CaCl2 (final concentration of 100 μM) to the solution, the mitochondria were collected by centrifugation (3000 g) at 4 °C. The pellets were resuspended in the swelling buffer containing 1 μM RuR. After collection of the mitochondria by centrifugation (3000 g), the pellets were dried and dissolved by 40 μl of sulfuric acid at 95 °C.
# rat perfused heart = assay: Cardiac functions (heart rate, contractility) in rat isolated perfused heart
# Experimental: We then investigated the effect of DS16570511 on cardiac functions in the perfused heart. We observed that heart rate was unaffected by DS16570511 in the range of 3–30 μM (Figure 7a). […] The increase of contractility was diminished by washout of the drug (Figure 7b), showing that the cardiac effect of DS16570511 is reversible.
# Figure 7 Effects of DS16570511 on cardiac functions. (a) Effect of DS16570511 on heart rate in rat perfused heart. Data are mean with S.E.M. from more than four independent samples. (b) Representative data showing acute and reversible effect of DS16570511 on contractility. (c) Effect of DS16570511 on contractility in rat perfused heart. Plotted are values of pretreatment and 5 min after treatment of 10 or 30 μM DS16570511.
# The hearts were rapidly excised from 9-week-old male Wistar rats and perfused at 37 °C with Krebs-Ringer perfusion buffer (127.2 mM NaCl, 4.7 mM KCl, 2.5 mM CaCl2, 1.2 mM KH2PO4, 1.2 mM MgSO4, 25 mM NaHCO3 and 5.5 mM glucose (pH 7.4)) equilibrated with 95% O2/5% CO2. A balloon was inserted through the left atrium into the left ventricle. Heart rate and contractility were continuously recorded with a data acquisition system (PowerLab, ADInstruments, Bella Vista, NSW, Australia).
smiles,measurement,setting,value
Cc1onc(-c2c(Cl)cccc2Cl)c1CNc1cccc(C(=O)c2cn(CCCC(=O)O)c3ccccc23)c1 [DS16570511],effect on MICU1-dependent activation of the uniporter,MICU1,blocked by DS16570511 in a dose-dependent manner
same,IC50,[1],15 µM
same,effect on heart rate,rat perfused heart; 3–30 μM,unaffected
same,effect on cardiac contractility,"rat perfused heart; 10 or 30 μM, 5 min after treatment",increased cardiac contractility
same,reversibility of the cardiac effect on washout,rat perfused heart; washout of the drug,reversible
